Source: PubChem BioAssay (NCI)
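Interpolation was linear, between the two tested concentrations surrounding the appropriate level; five concentrations were tested over 48 hours in 96-well plates. GI50 = concentration required for 50% inhibition of growth. At the TGI there is no net growth.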

How the values were obtained:
Assay in all cases: NCI anticancer screen, dose series, 48 h
M14 melanoma = system: M14 melanoma
RPMI-8226 leukemia = system: RPMI-8226 leukemia
RXF 393 renal = system: RXF 393 renal
SF-268 CNS = system: SF-268 CNS
SK-MEL-5 melanoma = system: SK-MEL-5 melanoma
SK-OV-3 ovarian = system: SK-OV-3 ovarian
T-47D breast = system: T-47D breast
UACC-257 melanoma = system: UACC-257 melanoma
CCRF-CEM leukemia = system: CCRF-CEM leukemia
NCI-H460 lung = system: NCI-H460 lung

Compound	GI50 (M14 melanoma) [µM]	TGI (M14 melanoma) [µM]	GI50 (RPMI-8226 leukemia) [µM]	TGI (RPMI-8226 leukemia) [µM]	GI50 (RXF 393 renal) [µM]	TGI (RXF 393 renal) [µM]	GI50 (SF-268 CNS) [µM]	TGI (SF-268 CNS) [µM]	GI50 (SK-MEL-5 melanoma) [µM]	TGI (SK-MEL-5 melanoma) [µM]	GI50 (SK-OV-3 ovarian) [µM]	TGI (SK-OV-3 ovarian) [µM]	GI50 (T-47D breast) [µM]	TGI (T-47D breast) [µM]	GI50 (UACC-257 melanoma) [µM]	TGI (UACC-257 melanoma) [µM]	TGI (CCRF-CEM leukemia) [µM]	TGI (NCI-H460 lung) [µM]	GI50 (CCRF-CEM leukemia) [µM]	GI50 (NCI-H460 lung) [µM]
CCCCC(SC(=S)N1CCCC1)C(=O)Nc1nc(CC(=O)OCC)cs1 (centres undefined)	32.9	> 100	10.6	90.9	41.7	> 100	37.5	> 100	13.1	45.6	97.4	> 100	30.5	> 100	47.9	> 100				
C=C1CC(CC)(CCN2C(=O)c3ccccc3C2=O)OC1=O (centres undefined)		22.8		> 100		29.9		21.4		26.1						27	> 100	> 100		
CCCn1c2c(c3c(O)cccc31)C(=O)c1ccccc1-2	60.6	> 100	7.34	> 100			19.5	> 100	11.9	> 100	23.7	> 100	10	> 100	22.9	96.5	> 100	> 100	> 100	22.1
COc1ccccc1/C=C1\COc2ccc(-c3ccccc3)cc2C1=O	4	32.2	2.83	> 100			3.14	10.4	2.19	7.61	3.7	> 100	2.83	> 100			15.2	4.62	2.08	2.1
CC(C)N(C(=O)c1cccc(C(=O)N(C(C)C)C(C)C)c1)C(C)C		> 100		67.1				> 100		> 100		> 100				> 100	> 100	> 100		
COC(=O)CCC(NC(=S)N/N=C(\C)c1ccc[nH]1)C(=O)OC (centres undefined)		> 100				> 100		> 100		> 100		> 100				> 100	> 100	> 100		
Cc1cc(N(CCC#N)S(=O)(=O)c2ccccc2)ccc1/C=C1\N=C(c2ccc(Cl)cc2)OC1=O		> 100		> 100		> 100		> 100		> 100						> 100	> 100	> 100		
CCO/C=C1\N=C(c2ccc(Cl)c(Cl)c2)OC1=O		> 100		> 100		> 100		> 100		> 100						> 100	> 100	> 100		
CC(C)C1CO[C@]2(C)CCC(=O)N12 (some centres undefined)		> 100		> 100		> 100		> 100		> 100		> 100				> 100	> 100	> 100		
C#CC1(O)CCC2C3CCc4cc(Oc5nc(F)nc(-c6c7ccccc7c7n6CCS7)n5)ccc4C3CC[C@@]21C (some centres undefined)		40.5		57.5				> 100		45.5						> 100	80.1	> 100		
COc1cc(CNc2nc3c(N)cc(C(F)(F)F)cc3nc2-c2ccccc2)cc(OC)c1OC		> 100		> 100		69.4		> 100		> 100	> 100	> 100				> 100	> 100	> 100	> 100	
COc1c(C(C)=O)c(OCCCCOc2c(C(C)=O)c(OC)c3ccoc3c2OC)c(OC)c2occc12	2.55	> 100	0.394	5.57			> 42.1	> 100	1.52	3.4	> 100	> 100	2.02	> 26.4				> 100		> 24.3
N#CC(CCN1CCC(Nc2ccccc2)(c2nnnn2C2CCCCC2)CC1)(c1ccccc1)c1ccccc1		> 100		> 100		> 100		> 100		> 100		> 100				> 100	> 100	> 100		
ClC(Cl)=C(Cl)C1(Cl)CC1COCc1ccccc1 (centres undefined)		> 100		44.2		59.6		> 100		31.8		> 100				97.2	49	> 100		
N#C/C(=C/C=C/c1ccco1)C(N)=O		> 10				> 10		> 10		> 10		> 10		> 10				> 10		
O=c1cccccc1[O-].O=c1cccccc1[O-].O=c1cccccc1[O-].[Eu+3]		> 100		> 100		73.9		> 100		> 100		> 100				99.6	78	> 100		
CCC[CH2][Sn]([CH2]CCC)([O]C(=O)c1cc(OC)c(OC)cc1OC)[O][Sn]([CH2]CCC)([CH2]CCC)[O]C(=O)c1cc(OC)c(OC)cc1OC	0.282	0.797	0.236	0.667	0.151	0.304	0.27	0.972	0.898	2.15	1.21	2.58			0.276	0.883	0.422	2.85	0.0421	1.3
N#Cc1nc(-c2ccc(F)cc2)oc1S(=O)(=O)N1CCCCC1	1.77	3.87			1.91	3.38	2.23	6.23	1.81	3.36	24.3	91.2	2.13	5.44	1.98	4.58	> 100	19.6	0.954	4.77
CCCn1c(SCCSc2c3ccccc3c(-c3nc(F)nc(F)n3)n2CCC)c2ccccc2c1-c1nc(F)nc(F)n1		> 100		79.7		> 100		> 100				> 100				> 100	> 100	> 100		

Compound	GI50 (M14 melanoma) [µM]	TGI (M14 melanoma) [µM]	GI50 (RPMI-8226 leukemia) [µM]	TGI (RPMI-8226 leukemia) [µM]	GI50 (RXF 393 renal) [µM]	TGI (RXF 393 renal) [µM]	GI50 (SF-268 CNS) [µM]	TGI (SF-268 CNS) [µM]	GI50 (SK-MEL-5 melanoma) [µM]	TGI (SK-MEL-5 melanoma) [µM]	GI50 (SK-OV-3 ovarian) [µM]	TGI (SK-OV-3 ovarian) [µM]	GI50 (T-47D breast) [µM]	TGI (T-47D breast) [µM]	GI50 (UACC-257 melanoma) [µM]	TGI (UACC-257 melanoma) [µM]	TGI (CCRF-CEM leukemia) [µM]	TGI (NCI-H460 lung) [µM]	GI50 (CCRF-CEM leukemia) [µM]	GI50 (NCI-H460 lung) [µM]
O=C(/C=C(\O)C(=O)O)/C=C(\O)c1ccccc1	> 1	> 100	> 100	> 100		> 100	> 1	> 100	> 1	> 1	> 1	> 100			> 1	> 100	> 100	> 100	> 1	> 1
CC1=CC2C(C(O)CC3(C)C2CC(C)C32OCOC23COCO3)C2(C)C/C(=C/O)C(=O)C=C12 (centres undefined)	1.66	3.51	1.84	5.15	1.81	3.31	2.03	3.84	1.74	3.16	2.73	6.42	2.33	5.73	1.82	3.86	3.61		1.05	
C=CC(=O)N1C/C(=C\c2ccc(Cl)c(Cl)c2)C(=O)/C(=C/c2ccc(Cl)c(Cl)c2)C1		0.702		0.0983		0.299		0.298		1.74		1.61				1.57	0.082	0.298		
CN(C)Cc1ccc(-c2cc3onc(-c4ccccc4)c3c(=O)n2C)cc1		30.7		54.9				> 100		47.1		> 100		58.4		35.6		32.3		
O=c1cc(-c2ccccn2)[nH]c2cccc(F)c12		> 100		> 100		> 100				> 100		> 100				> 100	> 100	> 100		
Oc1c(C(Nc2ccccc2Br)c2ccccc2)ccc2cccnc12 (centres undefined)	2.3	8.47	6.28	> 100	1.97	20.9	1.7	17.3	1.72	7.38	3.24	78.5	3.77	73.1	1.88	8.48		11.7		0.722
COc1cc2c(cc1OC)C(C(=O)O)C(c1ccccc1)N(C)C2=O (centres undefined)		> 100		> 100				> 100		> 100		> 100				> 100	> 100	> 100		
O=C(Oc1cccc(Cl)c1)c1ccccc1Nc1ccnc(C(F)(F)F)c1	1.77	4.46	1.83	4.33			3.03	10.8	2.59	6.73							91.6	43.7	0.898	11.2
COc1ccc2c(c1)/C(=C\c1ccncc1)C(=O)N2	8.33	26	10.2	77.1			5.07	37.3	13.1	27.6	19.5	79.9	22.3	> 100	4.62	18.3	> 100	> 100	3.06	6.68
CCOC(=O)NC(=O)c1cn(CCN2CCN(C(=O)CNC(=O)CNC(=O)Cn3cc(C(=O)NC(=O)OCC)c(=O)[nH]c3=O)CC2)c(=O)[nH]c1=O		> 100						> 100				> 100				> 100	> 100	> 100		
C/C(CC(=O)Nc1cccc(Cl)c1C)=N\NC(N)=S		> 100		> 100		> 100		> 100		> 100		> 100				> 100	> 100	> 100		
COC1C(OC(=O)c2ccc(C)[nH]2)C(O)C(Oc2ccc3c(O)c(NC(=O)c4c[nH]c(C(=O)Nc5c(O)c6ccc(OC7OC(C)(C)C(OC)C(OC(=O)c8ccc(C)[nH]8)C7O)c(C)c6oc5=O)c4C)c(=O)oc3c2C)OC1(C)C (centres undefined)				4.83		2.23		7.44		6.51		4.58				33.5	10.6	6.62		
CC(C)/C=C1\CCC(CN2CCOCC2)C1=O (centres undefined)		26.1		4.47		14.1		52.5		36.8		> 100				20.1	9.51	> 60.7		
N#C/C(=C1\SCC(=O)N1c1ccccc1)c1nc2ccccc2[nH]1		> 100				> 100		> 100		> 100		> 100				> 100	> 100	> 100		
O=C(O)C(Cc1cnc[nH]1)N1C(=O)c2ccccc2C1=O (centres undefined)		> 100		> 100		> 100		> 100		> 100				> 100		> 100		> 100		
Cc1ccc(/C=C/c2c(C(=O)/C=C/c3ccccc3)c(C)nc3ccccc23)cc1	1.87	4.52	1.54	5.13	1.53	2.88	2.06	5.42	1.71	3.11			1.28	4.32	1.86	4.02	> 100	2.99	1.69	1.37
COc1cc2c(cc1OC)-c1ncc3c(OC)ccc(OC)c3c1C2	> 100	> 100	6.44	78.2	16.4	48.9			12.4	34.3	37.3	98.7	29	> 100	19.7	55.4		> 100		20.9
COc1ccccc1N=Nc1c(-c2ccccc2)nn(C(=O)CC(=O)Nc2cccc(C)c2)c1-c1ccccc1		> 100				> 100		> 100		97.8						> 100	> 100	> 100		
